Data on 1 substance can be found in publication PMC8640168 (Current Research in Structural Biology, 2021).

The assay addresses SaPgsA (Staphylococcus aureus, UniProt P63756). As to the kind of experiment: […]-G3P incorporation into chloroform-soluble PGP, scintillation counting. In kind it is biochemical. The conditions noted are these: 1.6 mM [14C]-G3P, 100 mM MgCl2, 20 mM Triton X-100, 100 mM Tris-HCl pH 8.0, 27 C, 50 nM enzyme; detergent micelle (bulk concentration).

Consider CDP-DAG, for which the Km (usually the concentration of substrate that gives half-maximal velocity) was 400 µM.
